In patent US5612369A, “Thrombin inhibitors” (3-Dimensional Pharmaceuticals, Inc., priority 1995, dated 1997):

How the values were obtained:
factor Xa = test: In vitro inhibition of factor Xa (hydrolysis of Bz-Ile-Glu-Gly-Arg-pNa); format: biochemical, human; settings: at 60 μM inhibitor; factor Xa 10 nM, Bz-Ile-Glu-Gly-Arg-pNa 26 μM, pH 7.5, 37° C.
Protocol: (§1) The ability of the compounds of the present invention to act as inhibitors of thrombin, factor Xa and plasmin catalytic activity was assessed by determining the concentration which inhibited enzyme activity by 50% using purified human enzymes. The concentration of added inhibitor that caused a 50% decrease in the initial rate of hydrolysis was defined as the IC50 value.
All assays are based on the ability of the test compound to inhibit the hydrolysis of a peptide p-nitroanilide substrate. In a typical experiment, appropriate substrate is prepared in DMSO, and diluted into an assay buffer consisting of 50ram HEPES and 130 mM NaCl at a pH of 7.5. The final concentration for each of the substrates is listed below. […]
In a typical IC50 determination, into each well of a 96 well plate is pipetted 280 uL of substrate solution, 10 μL of inhibitor solution, and the plate is allowed to thermally equilibrate at 37° C. in a Molecular Devices Plate Reader for at least 10 minutes. Reactions are initiated by the addition of a 20 μL aliquot of enzyme, and the absorbance increase at 405 nm is recorded for 15 minutes. […] The ratio of the velocity (rate of the change in absorbance as a function of time) for a sample containing no inhibitor is divided by the velocity of a sample containing inhibitor, and is plotted as a function of inhibitor concentration. […]

human α-thrombin = biological target: T1, human α-thrombin (Homo sapiens, UniProt P00734); test: In vitro inhibition of purified thrombin (hydrolysis of Bz-Phe-Val-Arg-pNa); format: biochemical; settings: for thrombin inhibition, potency and selectivity in words: conclusion from Table 1 (versus factor Xa and plasmin); for IC50: purified human α-thrombin 36 nM, Bz-Phe-Val-Arg-pNa 66 μM, pH 7.5, 37° C.
T1 construct: Purified human α-thrombin; purchased Enzyme Research Laboratories, Inc
Protocol: as §1
All assays are based on the ability of the test compound to inhibit the hydrolysis of a peptide p-nitroanilide substrate. In a typical experiment, appropriate substrate is prepared in DMSO, and diluted into an assay buffer consisting of 50ram HEPES and 130 mM NaCl at a pH of 7.5. The final concentration for each of the substrates is listed below. All substrate concentrations are at least 10 fold lower than Km to insure inhibition is competitive. Test compounds are prepared as 1 mg/ml solutions in DMSO, and three additional 10-fold dilutions in DMSO are prepared. Enzyme solutions are prepared at the concentrations listed below in assay buffer.
In a typical IC50 determination, into each well of a 96 well plate is pipetted 280 uL of substrate solution, 10 μL of inhibitor solution, and the plate is allowed to thermally equilibrate at 37° C. in a Molecular Devices Plate Reader for at least 10 minutes. Reactions are initiated by the addition of a 20 μL aliquot of enzyme, and the absorbance increase at 405 nm is recorded for 15 minutes. Data corresponding to less than 10% of the total substrate hydrolysis is used in the calculations. The ratio of the velocity (rate of the change in absorbance as a function of time) for a sample containing no inhibitor is divided by the velocity of a sample containing inhibitor, and is plotted as a function of inhibitor concentration. The inverse of the slope is the concentration of inhibitor which produces a 50% decrease in activity of the enzyme. This concentration is referred to as the IC50.
Thrombin activity was assessed as the ability to hydrolyse the substrate N-benzoyl-Phe-Val-Arg-p-nitroanilide (Bz-Phe-Val-Arg-pNa), and was obtained from Sigma Chemical Company (St. Louis, Mo.). Substrate solutions were prepared at a concentration of 60 μM (60 μM<<Km =1.2 mM) in assay buffer. Final DMSO concentration was 0.3%. Purified human α-thrombin was obtained from Enzyme Research Laboratories, Inc., and was diluted into assay buffer to a concentration of 1.2 μM. Final reagent concentrations were: [thrombin]=36 nM, [Bz-Phe-Val-Arg-pNa]=66 μM, [inhibitor]=60 to 0.06 μM.

Compound	Factor Xa % Inhibition at 60 μM (factor Xa) [%]	thrombin inhibition, potency and selectivity in words (human α-thrombin)	IC50 (human α-thrombin) [µM]
Nc1ccc(CNC(=O)[C@@H]2CCCN2C(=O)[C@H](N)Cc2ccccc2)cc1 [Compound 13, D-phenylalanyl-N-[2-(4-aminobenzyl)]-L-prolinamide]	0	highly selective and potent inhibitors of thrombin	1
Nc1ccc(CNC(=O)[C@@H]2CCCN2C(=O)[C@@H](Cc2ccccc2)NC(=O)OCc2ccccc2)cc1 [Compound 12, N-CBZ-D-phenylalanyl-N-[2-(4-aminobenzyl)]-L-prolinamide]		highly selective and potent inhibitors of thrombin	2.8
COc1cc(CNC(=O)[C@@H]2CCCN2C(=O)[C@H](N)Cc2ccccc2)ccc1O [Compound 7, D-phenylalanyl-N-[2-(4-hydroxy-3-methoxybenzyl)]-L-prolinamide]	0	highly selective and potent inhibitors of thrombin	4.7
